Experimental data reported in patent publication US6943149B2, “Benzimidazolone peptidomimetics as thrombin receptor antagonists” (Ortho McNeil Pharmaceutical, Inc., priority 1999, dated 2005).

Legend:
[1] = test system: gel-filtered platelets (thrombin-stimulated aggregation); experiment: Thrombin-induced gel-filtered platelet aggregation assay; assay type: cell-based; conditions: human platelets, read-out: IC50 (μM) Thr GFP Aggr
Experimental: In Vitro Inhibition of Thrombin-Induced Gel-Filtered Platelet Aggregation Assay
The percentage of platelet aggregation is calculated as an increase in light transmission of compound-treated platelet concentrate vs. control-treated platelet concentrate. Human blood is obtained from drug free, normal donors in tubes containing 0.13M sodium citrate. Platelet rich plasma (PRP) is collected by centrifugation of whole blood at 200×g for 10 min at 25° C. The PRP (5 mL) is gel filtered through Sepharose 2B (bed volume 50 mL), and the platelet count is adjusted to 2×10^7 platelets per sample. The following constituents are added to a siliconized cuvette: concentrated platelet filtrate and Tyrode's buffer (0.14M NaCl, 0.0027M KCl, 0.012M NaHCO3, 0.76 mM Na2HPO4, 0.0055M glucose, 2 mg/mL BSA and 5.0 mM HEPES @ pH 7.4) in an amount equal to 350 μL, 50 μL of 20 mM calcium and 50 μL of the test compound. Aggregation is monitored in a BIODATA aggregometer for the 3 min following the addition of agonist (thrombin 50 μL of 1 unit/mL).

[2] = molecular target: T1, Thrombin receptor (PAR-1) (Homo sapiens, UniProt P25116); experiment: Thrombin receptor (PAR-1) binding assay; conditions: CHRF membranes; tritiated 721-40 radioligand; read-out: IC50 (μM) Thr recptr Bdg
T1 construct: CHRF membranes (Jones, Biochim. Biophys. Acta 1992, 1136, 272) are thawed from −70° C; endogenous in cells; host or cells: CHRF cell membranes
T1 sequence (P25116 22-425): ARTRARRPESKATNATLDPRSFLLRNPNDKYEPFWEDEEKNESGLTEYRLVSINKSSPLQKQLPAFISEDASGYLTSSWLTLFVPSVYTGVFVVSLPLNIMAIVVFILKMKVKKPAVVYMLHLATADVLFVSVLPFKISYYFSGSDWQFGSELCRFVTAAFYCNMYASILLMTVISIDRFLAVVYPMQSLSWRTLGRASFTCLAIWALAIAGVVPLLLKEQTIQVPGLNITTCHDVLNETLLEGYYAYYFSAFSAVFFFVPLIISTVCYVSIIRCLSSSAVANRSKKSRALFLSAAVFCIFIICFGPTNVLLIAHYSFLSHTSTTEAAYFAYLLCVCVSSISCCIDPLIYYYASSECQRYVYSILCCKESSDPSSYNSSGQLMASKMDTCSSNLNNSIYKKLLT
Experimental: In Vitro Thrombin Receptor Binding Assay
CHRF membranes (Jones, Biochim. Biophys. Acta 1992, 1136, 272) are thawed from −70° C., centrifuged at maximum speed for 5 min, washed twice with binding buffer (50 mM HEPES containing 5 mM MgCl2 and 0.1% BSA), and re-suspended in binding buffer ([…]). 100 μL of membranes are added to the 24-Wallac plates and delivered to the Tomtech apparatus. In a typical experiment, 6 μL of samples (from a 125 μg/mL intermediary plate, 20% DMSO) and 44 μL buffer are delivered to the plates (final conc. of compounds is 3.7 μg/mL, 0.6% DMSO). Similarly, 6 μL 20% DMSO and 44 μL buffer are delivered to both column 1 (NSB) and column 12 (TB). 10 μL Ser-pFPhe-Har-Leu-Har-Lys-Tyr-NH2, SEQ ID NO 1, (721-40; 500 μM in deionized water) is added to column 1. 50 μL tritiated 721-40 (specific activity 46 Ci/mmol) is added to all the wells. The plates are mixed well for 20 seconds, incubated for 30 min, and then harvested with 10 mM HEPES/138 mM NaCl using the Skatron harvester. The filters (GF/C Brandel FPXLR 296) are presoaked 3 h in 0.5% polyethylenimine in HEPES/0.1M N-acetylglucosamine) are set in saran wrap and dried for 3 min in the microwave, and placed in sample bags (Wallac 1450-432). 4.5 mL scintillation fluid (Wallac, Betaplate Scint 1205-440) is added. The bags are sealed, placed in filter cassettes (Wallac 1450-104), and analyzed on the microbeta counter.

NCC[C@H](NC(=O)[C@H](Cc1ccc(F)c(F)c1)NC(=O)Nc1ccc2c(c1)n(Cc1c(Cl)cccc1Cl)c(=O)n2CCN1CCCC1)C(=O)NCc1ccccc1 [Compound 1]
IC50 [1]: 0.39 µM
IC50 [2]: 1.6 µM

Cc1ccccc1Cn1c(=O)n(CCN2CCCC2)c2cc(NC(=O)N[C@@H](Cc3ccc(F)c(F)c3)C(=O)N[C@@H](CCN)C(=O)NCc3ccccc3)ccc21 [Compound 2]
IC50 [1]: 7 µM
IC50 [2]: 3 µM

Cc1ccccc1Cn1c(=O)n(CCN(C)C)c2cc(NC(=O)N[C@@H](Cc3ccc(F)c(F)c3)C(=O)N[C@@H](CCN)C(=O)NCc3ccccc3)ccc21 [Compound 3]
IC50 [1]: 7.7 µM
IC50 [2]: 1.9 µM

Cc1ccccc1Cn1c(=O)n(CCN(C)C)c2ccc(NC(=O)N[C@@H](Cc3ccc(F)c(F)c3)C(=O)N[C@@H](CCN)C(=O)NCc3ccccc3)cc21 [Compound 4]
IC50 [1]: 0.23 µM
IC50 [2]: 0.7 µM

Cc1ccccc1Cn1c(=O)n(CCN2CCCC2)c2ccc(NC(=O)N[C@@H](Cc3ccc(F)c(F)c3)C(=O)N[C@@H](CCN)C(=O)NCc3ccccc3)cc21 [Compound 5]
IC50 [1]: 0.28 µM
IC50 [2]: 0.4 µM

NCC[C@H](NC(=O)[C@H](Cc1ccc(F)c(F)c1)NC(=O)Nc1ccc2c(c1)n(Cc1ccc(F)cc1)c(=O)n2CCN1CCCC1)C(=O)NCc1ccccc1 [Compound 6]
IC50 [1]: 6 µM
IC50 [2]: 0.6 µM

NCC[C@H](NC(=O)[C@H](Cc1ccc(F)c(F)c1)NC(=O)Nc1ccc2c(c1)n(CCN1CCCC1)c(=O)n2Cc1c(Cl)cccc1Cl)C(=O)NCc1ccccc1 [Compound 7]
IC50 [1]: 5.5 µM
IC50 [2]: 1.7 µM

NCCNC(=O)[C@H](Cc1ccncc1)NC(=O)[C@H](Cc1ccc(F)c(F)c1)NC(=O)Nc1ccc2c(c1)n(Cc1ccc(F)cc1)c(=O)n2CCN1CCCC1 [Compound 8]
IC50 [1]: 5.8 µM
IC50 [2]: 0.5 µM
